41 compounds from ChEMBL document CHEMBL1149520, “Cyclopentane-based human NK1 antagonists. Part 1: discovery and initial SAR” (Bioorg Med Chem Lett, 2006) can be followed below.

Molecules are shown by their SMILES. Values after ≈ are worked out from the molar mass of the structure shown.

One data set in a line: physchem. Particulars: sodium acetate/acetic acid buffer, pH 5.
A further data set addresses Substance-P receptor (Homo sapiens, UniProt P25103). The experiment in a line: biochemical.
The nature of data set [1]: Dissociation constant, pKa of the compound. It counts as physicochemical.
Data set [2] can be described thus: Solubility in potassium hydrogen phosphate buffer at pH 5. Type of data set: physicochemical.
The species entered for the next data set is Cavia porcellus. The experiment in a line: animal or person. Particulars: Plasma, po, read-out: Inhibition.
A short description of data set [3]: Bioavailability in orally dosed rat. Particulars: in vivo, po. It counts as ADME, organism-based.
The nature of data set [4]: Bioavailability in orally dosed dog. The settings on record: in vivo, po. It counts as ADME, organism-based, Canis lupus familiaris.

Sequence of Substance-P receptor (P25103 whole entry): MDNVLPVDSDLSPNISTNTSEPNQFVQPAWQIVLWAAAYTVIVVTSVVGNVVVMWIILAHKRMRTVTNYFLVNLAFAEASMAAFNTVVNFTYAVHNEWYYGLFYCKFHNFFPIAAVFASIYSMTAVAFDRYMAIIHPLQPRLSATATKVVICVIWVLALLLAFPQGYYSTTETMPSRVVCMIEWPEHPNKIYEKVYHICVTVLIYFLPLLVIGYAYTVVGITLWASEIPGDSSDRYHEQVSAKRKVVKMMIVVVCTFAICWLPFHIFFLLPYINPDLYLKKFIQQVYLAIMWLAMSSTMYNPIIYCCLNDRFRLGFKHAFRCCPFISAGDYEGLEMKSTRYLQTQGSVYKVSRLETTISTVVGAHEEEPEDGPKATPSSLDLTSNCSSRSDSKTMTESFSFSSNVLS

For the compound `CN(C[C@@H]1CCC(=O)N1)[C@@H]1CC[C@H](OCc2cc(C(F)(F)F)cc(C(F)(F)F)c2)[C@H]1c1ccccc1`, the solubility in the data set “physchem” worked out at 510 µg/mL (≈ 991 µM). Also, 0.81 nM corresponded to half-maximal inhibition at Substance-P receptor (IC50).
Consider `O=C1CC[C@@H](CN[C@H]2CC[C@@H](OCc3cc(C(F)(F)F)cc(C(F)(F)F)c3)[C@@H]2c2ccccc2)N1`, for which, on Substance-P receptor, the IC50 amounted to 260 nM.
In the data set “physchem”, `O=C1CC[C@@H](CN[C@@H]2CC[C@H](OCc3cc(C(F)(F)F)cc(C(F)(F)F)c3)[C@H]2c2ccccc2)N1` registered a solubility of 4000 µg/mL (≈ 7990 µM). This compound also yielded an IC50 on Substance-P receptor of 1.5 nM.
For `O=c1[nH]nc(CN2CCO[C@H](OCc3cc(C(F)(F)F)cc(C(F)(F)F)c3)[C@@H]2c2ccccc2)[nH]1`, the pKa in data set [1] is below 3.5. In data set [2], this compound registered a solubility of 3 µg/mL (≈ 5.97 µM).
`CNC[C@@H]1CC[C@H](OCc2cc(C(F)(F)F)cc(C(F)(F)F)c2)[C@H]1c1ccccc1` (racemic): on Substance-P receptor, the IC50 was found to be 1.9 nM.
In “physchem”, `CN(Cc1n[nH]c(=O)[nH]1)C[C@@H]1CC[C@H](OCc2cc(C(F)(F)F)cc(C(F)(F)F)c2)[C@H]1c1ccccc1` (racemic) showed a solubility of 200 µg/mL (≈ 378 µM). Moreover, on Substance-P receptor, it took 2 nM to reach half-maximal inhibition (IC50).
`COC(=O)N[C@H]1CC[C@H](OCc2cc(C(F)(F)F)cc(C(F)(F)F)c2)[C@@H]1c1ccccc1` (racemic) had an IC50 against Substance-P receptor of 5.3 nM.
Same read-out and setting: to `CN(Cc1nnc[nH]1)[C@@H]1CC[C@H](OCc2cc(C(F)(F)F)cc(C(F)(F)F)c2)[C@H]1c1ccccc1` (racemic) belongs 1.1 nM.
`NC(=O)CNC[C@@H]1CC[C@H](OCc2cc(C(F)(F)F)cc(C(F)(F)F)c2)[C@H]1c1ccccc1` (racemic) showed a solubility in the data set “physchem” of 590 µg/mL (≈ 1240 µM). In addition, on Substance-P receptor, the IC50 amounted to 1.9 nM.
`NC[C@@H]1CC[C@H](OCc2cc(C(F)(F)F)cc(C(F)(F)F)c2)[C@H]1c1ccccc1` (racemic) had an IC50 against Substance-P receptor of 2.7 nM.
`O=C(N[C@H]1CC[C@H](OCc2cc(C(F)(F)F)cc(C(F)(F)F)c2)[C@@H]1c1ccccc1)OCc1ccccc1` (racemic) showed an IC50 on Substance-P receptor of 300 nM.
For the compound `NC(=O)CN[C@@H]1CC[C@H](OCc2cc(C(F)(F)F)cc(C(F)(F)F)c2)[C@H]1c1ccccc1` (racemic), in data set [1], the pKa was 6.6. Besides, the solubility in “physchem” amounted to 1100 µg/mL (≈ 2390 µM). Besides, the IC50 at Substance-P receptor was 1.3 nM. Besides, the inhibition in vivo at 1 mg/kg in the data set listed under Cavia porcellus turned out to be 60%.
The compound `CN(CC(N)=O)C[C@@H]1CC[C@H](OCc2cc(C(F)(F)F)cc(C(F)(F)F)c2)[C@H]1c1ccccc1` (racemic) showed a solubility in the data set “physchem” of 300 µg/mL (≈ 614 µM). The same compound yielded an IC50 against Substance-P receptor of 1.9 nM.
Take `FC(F)(F)c1cc(CO[C@H]2CC[C@@H](CN3CCOCC3)[C@@H]2c2ccccc2)cc(C(F)(F)F)c1` (racemic): the IC50 on Substance-P receptor was 8.2 nM.
The compound `COC(=O)N[C@@H]1CC[C@H](OCc2cc(C(F)(F)F)cc(C(F)(F)F)c2)[C@H]1c1ccccc1` (racemic) returned an IC50 against Substance-P receptor of 0.89 nM. In the data set filed under Cavia porcellus, the inhibition in vivo at 1 mg/kg is below 25%.
Regarding `CNC(=O)N[C@@H]1CC[C@H](OCc2cc(C(F)(F)F)cc(C(F)(F)F)c2)[C@H]1c1ccccc1` (racemic), the midpoint of inhibition on Substance-P receptor, the IC50, lay at 2.7 nM.
The same measure, in the same setting: the figure for `NC(=O)[C@@H]1CC[C@H](OCc2cc(C(F)(F)F)cc(C(F)(F)F)c2)[C@H]1c1ccccc1` (racemic) is 7.2 nM; for `OC[C@@H]1CC[C@H](OCc2cc(C(F)(F)F)cc(C(F)(F)F)c2)[C@H]1c1ccccc1` (racemic) it is 0.77 nM.
The compound `NC(=O)CN[C@H]1CC[C@H](OCc2cc(C(F)(F)F)cc(C(F)(F)F)c2)[C@@H]1c1ccccc1` (racemic) had a solubility in “physchem” of 800 µg/mL (≈ 1740 µM). Moreover, the midpoint of inhibition on Substance-P receptor, the IC50, lay at 8.3 nM.
`FC(F)(F)c1cc(CO[C@H]2CC[C@@H](CN3CCCCC3)[C@@H]2c2ccccc2)cc(C(F)(F)F)c1` (racemic) came in with an IC50 on Substance-P receptor of 5 nM.
On the same count and under the same terms, the figure for `O=c1[nH]cc(CN[C@@H]2CC[C@H](OCc3cc(C(F)(F)F)cc(C(F)(F)F)c3)[C@H]2c2ccccc2)[nH]1` (racemic) is 5.2 nM.
The compound `CN(CC[C@@H]1CC[C@H](OCc2cc(C(F)(F)F)cc(C(F)(F)F)c2)[C@H]1c1ccccc1)Cc1n[nH]c(=O)[nH]1` (racemic) showed a solubility in “physchem” of 10 µg/mL (≈ 18.4 µM). Moreover, 4.9 nM corresponded to half-maximal inhibition on Substance-P receptor (IC50).
For the compound `COC(=O)N(C)[C@@H]1CC[C@H](OCc2cc(C(F)(F)F)cc(C(F)(F)F)c2)[C@H]1c1ccccc1` (racemic), at Substance-P receptor, the IC50 was determined as 6.2 nM.
Compound `CN(Cc1n[nH]c(=O)[nH]1)C[C@H]1CC[C@H](OCc2cc(C(F)(F)F)cc(C(F)(F)F)c2)[C@@H]1c1ccccc1` (racemic) displayed a solubility in “physchem” of 80 µg/mL (≈ 151 µM). The compound also showed an IC50 at Substance-P receptor of 4.7 nM.
Take `CN(C)C(=O)N[C@@H]1CC[C@H](OCc2cc(C(F)(F)F)cc(C(F)(F)F)c2)[C@H]1c1ccccc1` (racemic): the IC50 at Substance-P receptor worked out at 5 nM.
Same read-out and setting: to `O=C(O)[C@@H]1CC[C@H](OCc2cc(C(F)(F)F)cc(C(F)(F)F)c2)[C@H]1c1ccccc1` (racemic) belongs 67 nM; to `CN(CC(N)=O)[C@H]1CC[C@H](OCc2cc(C(F)(F)F)cc(C(F)(F)F)c2)[C@@H]1c1ccccc1` (racemic), 2.1 nM.
Same read-out and setting: to `NC(=O)N[C@H]1CC[C@H](OCc2cc(C(F)(F)F)cc(C(F)(F)F)c2)[C@@H]1c1ccccc1` (racemic) belongs 9.8 nM.
The compound `CN(CC(N)=O)[C@@H]1CC[C@H](OCc2cc(C(F)(F)F)cc(C(F)(F)F)c2)[C@H]1c1ccccc1` (racemic) displayed a pKa in data set [1] of 5.8. The compound further displayed a solubility in the data set “physchem” of 16 µg/mL (≈ 33.7 µM). Moreover, the IC50 against Substance-P receptor came out at 2.7 nM.
At Substance-P receptor, `O=C(N[C@@H]1CC[C@H](OCc2cc(C(F)(F)F)cc(C(F)(F)F)c2)[C@H]1c1ccccc1)OCc1ccccc1` (racemic) had an IC50 of 40 nM.
Turning to `N[C@H]1CC[C@H](OCc2cc(C(F)(F)F)cc(C(F)(F)F)c2)[C@@H]1c1ccccc1` (racemic), on Substance-P receptor, the IC50 is 7.9 nM.
On the same count and under the same terms, to `CN(C)C(=O)N(C)[C@@H]1CC[C@H](OCc2cc(C(F)(F)F)cc(C(F)(F)F)c2)[C@H]1c1ccccc1` (racemic) belongs 16 nM; to `NC(=O)N[C@@H]1CC[C@H](OCc2cc(C(F)(F)F)cc(C(F)(F)F)c2)[C@H]1c1ccccc1` (racemic), 3.5 nM.
On to `CN[C@@H]1CC[C@H](OCc2cc(C(F)(F)F)cc(C(F)(F)F)c2)[C@H]1c1ccccc1` (racemic), for which the IC50 at Substance-P receptor was 0.83 nM.
On the same count and under the same terms, the figure for `CN[C@H]1CC[C@H](OCc2cc(C(F)(F)F)cc(C(F)(F)F)c2)[C@@H]1c1ccccc1` (racemic) is 7.2 nM; for `N[C@@H]1CC[C@H](OCc2cc(C(F)(F)F)cc(C(F)(F)F)c2)[C@H]1c1ccccc1` (racemic) it is 5.7 nM; for `NC(=O)CN[C@@H]1CC[C@H](OCc2cc(C(F)(F)F)cc(C(F)(F)F)c2)[C@H]1c1ccccc1` (relative stereo) it is 0.95 nM.
Compound `NC(=O)CN[C@H]1CC[C@@H](OCc2cc(C(F)(F)F)cc(C(F)(F)F)c2)[C@@H]1c1ccccc1` (relative stereo) returned an IC50 at Substance-P receptor of 45 nM.
Still for that read-out and setting: to `N[C@H]1CC[C@@H](OCc2cc(C(F)(F)F)cc(C(F)(F)F)c2)[C@@H]1c1ccccc1` (relative stereo) belongs 100 nM.
On Substance-P receptor, `N[C@@H]1CC[C@H](OCc2cc(C(F)(F)F)cc(C(F)(F)F)c2)[C@H]1c1ccccc1` (relative stereo) registered an IC50 of 2.3 nM.
As for `C[C@@H](O[C@H]1OCCN(Cc2n[nH]c(=O)[nH]2)[C@H]1c1ccc(F)cc1)c1cc(C(F)(F)F)cc(C(F)(F)F)c1` [APREPITANT], in data set [1], the pKa is below 3.5. The bioavailability is 53% in data set [3] and 40% in data set [4]. This compound also came in with a solubility in data set [2] below 0.5 µg/mL.

The term solubility denotes the concentration that dissolves in the medium under given conditions. A lower solubility goes with little dissolved substance. Usually IC50 stands for the concentration at which inhibition is half-maximal. A high value points to a need for much substance. By pKa is commonly meant the pH at which an ionisable group is half protonated. As a reminder, the bioavailability is dose-corrected exposure relative to a reference, in per cent. Read a high bioavailability as much systemic uptake.
